Ten molecules from patent US8268827B2, “Pyridazinone derivatives as PARP inhibitors” (Istituto di Ricerche di Biologia Molecolare P. Angeletti …, priority 2007, dated 2012) can be followed below.

Structures are written as SMILES. Where a name gives a salt, the structure may show the parent alone.

Experiment [1] concerns BRCA-1 silenced HeLa cells (HeLa shBRCA1-GFP). Put plainly: Proliferation assay in BRCA-1 silenced HeLa cells. It counts as cell-based. The following applies: Homo sapiens; BRCA1 silenced HeLa cells, 168 hours; read-out: CC50 in the BRCA1 silenced HeLa cells. Put shortly: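 HeLa cells with lentiviral shRNA BRCA1 knockdown (>80%), compared with control-vector HeLa, seeded at 300 cells/well. Compound exposure lasted 168 h at 37° C. Viability was read as resazurin-to-resorufin fluorescence (ex 550/em 590 nm).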

Another experiment concerns the target T1, PARP-1 (Homo sapiens, UniProt P09874).
T1 construct: purchased Trevigen 4668-500-01
Put plainly: PARP-1 SPA assay. It counts as biochemical. Here is the method: Assay buffer: 100 mM Tris pH 8, 4 mM MgCl2, 4 mM Spermine, 200 mM KCl, 0.04% Nonidet P-40.
Nicotinamide-adenine dinucleotide (NAD)/DNA Mix: [^3H-NAD] (250 uCi/ml, 0.4 ul, Perkin-Elmer NET-443H), NAD (1.5 mM, 0.05 ul, SIGMA N-1511), Biotinylated-NAD (250 uM, 0.03 ul, Trevigen 4670-500-01), Activated calf thymus (1 mg/ml, 0.05 ul, Amersham Biosciences 27-4575), H2O (to 10 ul).
Developing Mix: Streptavidin SPA beads (5 mg/ml, Amersham Biosciences RPNQ 0007) dissolved in 500 mM EDTA.
The reaction is performed in 96-well microplate with a final volume of 50 uL/well. Add 5 ul 5% DMSO/compound solution, add enzyme mix (35 ul), start the reaction by adding NAD/DNA mix (10 uL) and incubate for 2 hrs at RT. Stop the reaction by adding developing mix (25 ul) and incubate 15 min at RT. Measure using a Packard TOP COUNT instrument.

T1 sequence (P09874 whole entry): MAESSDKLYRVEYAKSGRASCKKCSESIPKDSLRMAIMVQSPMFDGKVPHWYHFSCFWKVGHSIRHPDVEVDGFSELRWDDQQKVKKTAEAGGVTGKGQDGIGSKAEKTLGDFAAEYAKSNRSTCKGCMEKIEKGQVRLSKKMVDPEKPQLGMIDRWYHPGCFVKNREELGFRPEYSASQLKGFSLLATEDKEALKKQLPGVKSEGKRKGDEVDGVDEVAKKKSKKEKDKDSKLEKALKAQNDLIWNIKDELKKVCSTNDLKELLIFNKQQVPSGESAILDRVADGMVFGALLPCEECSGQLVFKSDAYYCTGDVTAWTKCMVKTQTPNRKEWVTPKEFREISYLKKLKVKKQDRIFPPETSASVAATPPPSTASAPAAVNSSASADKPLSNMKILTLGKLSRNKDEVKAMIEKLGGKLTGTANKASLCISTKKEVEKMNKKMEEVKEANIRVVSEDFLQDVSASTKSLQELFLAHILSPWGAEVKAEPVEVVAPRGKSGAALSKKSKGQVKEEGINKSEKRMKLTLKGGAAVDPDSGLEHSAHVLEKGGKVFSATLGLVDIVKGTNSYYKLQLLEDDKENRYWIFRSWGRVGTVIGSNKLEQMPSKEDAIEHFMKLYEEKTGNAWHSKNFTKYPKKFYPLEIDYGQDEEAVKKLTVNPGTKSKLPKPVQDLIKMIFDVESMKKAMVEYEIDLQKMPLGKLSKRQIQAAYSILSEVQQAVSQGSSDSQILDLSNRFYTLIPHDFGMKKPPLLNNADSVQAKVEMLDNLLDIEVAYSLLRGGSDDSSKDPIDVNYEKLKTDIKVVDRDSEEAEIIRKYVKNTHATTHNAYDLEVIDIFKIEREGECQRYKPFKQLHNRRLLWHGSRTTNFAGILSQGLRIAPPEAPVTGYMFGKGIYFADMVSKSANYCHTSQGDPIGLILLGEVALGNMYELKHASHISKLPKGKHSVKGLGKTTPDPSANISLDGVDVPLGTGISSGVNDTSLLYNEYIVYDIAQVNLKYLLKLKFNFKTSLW

Take `Cc1c(Cc2ccc(F)c(C(=O)N3CCN(C4CCC(C)(C)CC4)C(=O)C3)c2)n[nH]c(=O)c1C` [Example 50, 6-(3-{[4-(4,4-Dimethylcyclohexyl)-3-oxopiperazin-1-yl]carbonyl}-4-fluorobenzyl)-4,5-dimethyl-3-oxo-2,3-dihydropyridazin-1-ium trifluoroacetate]: the CC50 in experiment [1] was under 50 nM. On PARP-1, this molecule came in with an IC50 of 5 to 25 nM.
The like results for `Cc1c(Cc2ccc(F)c(C(=O)N3CCN(C4CCCC(C)(C)C4)C(=O)C3)c2)n[nH]c(=O)c1C` (centres unmarked) [Example 51, 6-(3-{[4-(3,3-Dimethylcyclohexyl)-3-oxopiperazin-1-yl]carbonyl}-4-fluorobenzyl)-4,5-dimethyl-3-oxo-2,3-dihydropyridazin-1-ium trifluoroacetate] were, in that order, 50 to 500 nM and 5 to 25 nM.
For `Cc1c(Cc2ccc(F)c(C(=O)N3CCN(C45CC(C4)C5)C(=O)C3)c2)n[nH]c(=O)c1C` [Example 52, 6-{3-[(4-Bicyclo[1.1.1]pent-1-yl-3-oxopiperazin-1-yl)carbonyl]-4-fluorobenzyl}-4,5-dimethyl-3-oxo-2,3-dihydropyridazin-1-ium trifluoroacetate] the same measures were 50 to 500 nM and 5 to 25 nM.
For `Cc1c(Cc2ccc(F)c(C(=O)N3CCN(CC4CCCc5ccccc54)C(=O)C3)c2)n[nH]c(=O)c1C` (centres unmarked) [Example 53, 6-(4-Fluoro-3-{[3-oxo-4-(1,2,3,4-tetrahydronaphthalen-1-ylmethyl)piperazin-1-yl]carbonyl}benzyl)-4,5-dimethyl-3-oxo-2,3-dihydropyridazin-1-ium trifluoroacetate] the same measures were 50 to 500 nM and 5 to 25 nM.
Regarding `Cc1c(Cc2ccc(F)c(C(=O)N3CCN(C(C)c4nc(C(C)C)no4)C(=O)C3)c2)n[nH]c(=O)c1C` (centres unmarked) [Example 54, 6-[4-Fluoro-3-({4-[1-(3-isopropyl-1,2,4-oxadiazol-5-yl)ethyl]-3-oxopiperazin-1-yl}carbonyl)benzyl]-4,5-dimethyl-3-oxo-2,3-dihydropyridazin-1-ium trifluoroacetate], in experiment [1], the CC50 lay in the range of 50 to 500 nM. The IC50 at PARP-1 was under 5 nM.
The like results for `Cc1c(Cc2ccc(F)c(C(=O)N3CCN(C4CC(F)(F)C4)C(=O)C3)c2)n[nH]c(=O)c1C` [Example 55, 6-(3-{[4-(3,3-Difluorocyclobutyl)-3-oxopiperazin-1-yl]carbonyl}-4-fluorobenzyl)-4,5-dimethyl-3-oxo-2,3-dihydropyridazin-1-ium trifluoroacetate] were, in that order, 50 to 500 nM and 5 to 25 nM.
The like results for `Cc1c(Cc2ccc(F)c(C(=O)N3CCN(CC4(c5ccccc5)CCOCC4)C(=O)C3)c2)n[nH]c(=O)c1C` [Example 56, 6-[4-Fluoro-3-({3-oxo-4-[(4-phenyltetrahydro-2H-pyran-4-yl)methyl]piperazin-1-yl}carbonyl)benzyl]-4,5-dimethyl-3-oxo-2,3-dihydropyridazin-1-ium trifluoroacetate] were, in that order, under 5000 nM and 5 to 25 nM.
The like results for `Cc1c(Cc2ccc(F)c(C(=O)N3CCN(C4CCC4)C(=O)C3)c2)n[nH]c(=O)c1C` [Example 57, 6-{3-[(4-Cyclobutyl-3-oxopiperazin-1-yl)carbonyl]-4-fluorobenzyl}-4,5-dimethyl-3-oxo-2,3-dihydropyridazin-1-ium trifluoroacetate] were, in that order, 50 to 500 nM and 5 to 25 nM.
`Cc1c(Cc2ccc(F)c(C(=O)N3CCN(CCc4cccc(F)c4)C(=O)C3)c2)n[nH]c(=O)c1C` [Example 59, 6-[4-Fluoro-3-({4-[2-(3-fluorophenyl)ethyl]-3-oxopiperazin-1-yl}carbonyl)benzyl]-4,5-dimethyl-3-oxo-2,3-dihydropyridazin-1-ium trifluoroacetate]: the 50% cytotoxic concentration (CC50) in experiment [1] fell in the range of 50 to 500 nM. On PARP-1, this molecule returned an IC50 of under 5 nM.
For `Cc1c(Cc2ccc(F)c(C(=O)N3CCN(c4cnc5ccccc5c4)C(=O)C3)c2)n[nH]c(=O)c1C` [Example 60, 6-{4-Fluoro-3-[(3-oxo-4-quinolin-3-ylpiperazin-1-yl)carbonyl]benzyl}-4,5-dimethylpyridazin-3(2H)-one], in experiment [1], the CC50 is under 50 nM. At PARP-1, this molecule registered an IC50 of under 5 nM.

By CC50 is commonly meant the concentration at which the toxic effect on the cells reaches its halfway point. A word on the IC50: it is the midpoint of a concentration-inhibition curve.
